Experiment [1] deals with sleep/wake cycle. As to the kind of experiment: sleep/wake cycle in the rat (H. Kleinlogel). Format: in vivo. To be noted: 10 mg/kg p.o. The protocol: Additionally, the compounds on administration to mice of from about 0.1 to about 10 mg/kg i.p. inhibit the hypermotility induced by 4,α-dimethyl-m-tyramine (H 77/77) in a test carried out according to the principles of J. Buus Lassen, Psychopharmacologia 37, 331-340 (1974). The compounds also increase the sleep phase II in the sleep/wake cycle in the rat carried out according to the principles of H. Kleinlogel et al, European J. Pharmacol. 33, 159-163, 1975, on administration of from […]. Results obtained are e.g. as follows:
Additionally the compounds of the invention are useful as sleep-inducing, sleep-promoting and sleep-prolonging agents, as indicated in standard tests. For example, in one test according to the principles of H. Kleinlogel, European J. Pharmacol. 33, 159-163 (1975) an increase in the sleep phase II and a decrease of the wake phase is observed after administration to rats of from 0.5 to 80 mg/kg p.o. animal body weight of the compounds.

Experiment [2] deals with spontaneous motor activity. Briefly: inhibition of spontaneous motor activity in mice (Caviezel and Baillod). To be noted: Mus musculus, po. Format: in vivo. The protocol: In particular, the compounds of the invention are useful as neuroleptic agents in the treatment of e.g. psychotic disturbances such as schizophrenia, as indicated in standard tests, e.g. by an inhibition of spontaneous motor activity in mice on p.o. administration of from about 1 to about 50 mg/kg animal body weight of the compounds in accordance with the principles of Caviezel and Baillod (Pharm. Acta Helv. (1958), 33, 465-484).

The ED50 is the dose that gives a 50% effect, or the effect in half of the subjects. Read a high ED50 as a need for a large dose.

As for `CN1CCN(C2=Nc3cc(Cl)ccc3Nc3ccccc32)CC1` [Clozapine], the “Sleep phase II % of control” value in experiment [1] was 144 % of control. On to `CN1CCC(N2Cc3cc(Cl)ccc3Sc3ccccc32)CC1` [Example 1, 2-Chloro-10-(1-methyl-piperidin-4-yl)-10,11-dihydro-dibenzo[b,f][1,4]thiazepine], for which it took a dose of 26 mg/kg to reach the 50% effect level in experiment [2] (ED50). In addition, in experiment [1], the “Sleep phase II % of control” value is listed as 131 % of control. For the compound `CSc1ccc2c(c1)N(CCC1CCCCN1C)c1ccccc1S2` (stereo not shown) [Thioridazine], the ED50 in experiment [2] is 26 mg/kg.

The values above are taken from patent US4360525A, “Dibenzazepine derivatives, pharmaceutical compositions containing them, and methods of use” (Sandoz Ltd., priority 1979, dated 1982).
